Test results reported in US10363314B2, “Sprayable topical carrier and composition comprising phosphatidylcholine” (LIPIDOR AB, priority 2013, dated 2019).

System: human skin
Assay: Erythema occurrence upon treating skin with carriers under occlusion for 12 days, first study
Format: in vivo
Conditions: 33 healthy volunteers, occlusive conditions, applied 5 days per week, scored after 12 days, index 0-4
Method: The effect of prior art pharmaceutical compositions and of carriers and compositions of the invention on human skin was observed by visual inspection or by determining erythema index by using DermaLab Combo and DSM II Colormeter (Cortex Technology, Denmark).
Erythema occurrence was assessed in two human studies. In the first study the skin irritation potential of different lipid carriers was evaluated. Thirty-three healthy volunteers received the test formulations and a positive and negative control under occlusive conditions. The test articles were applied 5 days per week and the irritation grade was scored after 12 days according to a four-level assessment index (0=No reaction; 1=Slight diffuse, partial erythema; 2=Clear, sharply demarcated erythema; 3=Severe erythema with induration; 4=Severe erythema with induration and/or epidermal defect).

## CCCCCCCCCCCCOS(=O)(=O)[O-].[Na+] [Pos. control, Sodium dodecylsulfate]
  Mean erythema assessment index: 3.0
